We go through two molecules from patent US6824801B2, “Process for producing foods having good keeping qualities and food keeping agents” (Nihon Starch Co., Ltd., priority 2000, dated 2004).

Experiment [1] concerns Bacillus subtillis IAM 1249. As to the kind of experiment: Test Example 1 antibacterial power test using turbidimetry (Table 12). The experiment is classed as cell-based. The settings on record: for OD^660 (turbidity): shake culture 37° C., 72 hours. Here is the method: AF was subjected to an antibacterial power test using a turbidimetry. More specifically, a soybean-casein digest broth medium (having a pH value of 5.5) previously sterilized and 1% of AF were placed into a test tube and heated under heating conditions shown in Table 12. Then, 8.7×10^4 CFU of Bacillus subtillis IAM 1249 was inoculated into the test tube, shake culture was carried out at 37° C. for 72 hours, and the turbidity (OD, 660 nm) was then measured.

The next experiment relates to Lactobacillus casei. As to the kind of experiment: Test Example 3 swelling of noodle soup sacks preserved at 30° C. (Table 13). The following applies: 2% of AF. Here is the method:
40 Grams of a powdery soup stock (produced by […], Co.), 200 ml of commercially available soy sauce and 2% of AF were added to 1000 ml of water. The mixture was aseptically filtered and charged in an amount of 100 ml into each of ten polypropylene sacks previously sterilized. Meanwhile, 1 ml of the noodle soup (containing a number of living bacteria of 3.1×10^6/ml) deteriorated due to “swelling” caused by Lactobacillus casei was charged into each of the above-prepared ten sacks, which were then sealed so as air not to be left therein. The ten sacks were divided into two groups each consisting of five sacks. One of the groups was not heated, and the other group was heated in a hot water at 55° C. for 10 minutes. Then, both of them were preserved at 30° C., and the occurrence of “swelling” was observed.

In a further experiment the test system is Bacillus subtillis. As to the kind of experiment: Example 11 curry preservability, sensory evaluation test (Table 14). The following applies: curry with AF. The procedure: 7 Parts of beef, 57 parts of vegetables (12 parts of potato, 40 parts of onion and 5 parts of carrot), 1 part of a curry powder, 6 parts of fatty oil, 0.2 parts of sodium glutamate, 1 part of starch and 40 parts of a soup were mixed together, and the mixture was heated and cooked at 80° C. for 1 hour. The resulting product was a curry containing a somewhat larger amount of soup and having a low viscosity. The following operations were conducted in a clean bench. The curry was subdivided each in an amount of 95 grams into ten plugged vessels previously sterilized. The ten vessels were divided into two groups each consisting of five vessels. A 30% solution of AF subjected to an aseptic filtration was added in an amount of 5 g into each of the vessels in one of the groups. Then, 2×10 ^5 nutritious cells of Bacillus subtillis incubated previously were inoculated into the group, and was mixed uniformly. Five grams of a 30% solution of AF subjected to an aseptic filtration was added into each of the vessels in the other group. Then, 2×10^5 nutritious cells of Bacillus subtillis incubated previously were inoculated into the group, and after mixing uniformly, heated at 60° C. for 10 minutes and then cooled rapidly. Both of the groups were preserved at […], and the preservability of them was compared by a sensory evaluation test.

Experiment [2] relates to Bacillus subtillis IAM 1249. As to the kind of experiment: minimum growth-inhibiting concentration (MIC) of AF, influence of heat treatment (Table A). The experiment is classed as cell-based. From the text: (§1) As described in the first process, 1,5-D-anhydrofructose is an antibacterial substance having a high safety, but the present inventors have found to obtain the following advantages when 1,5-D-anhydrofructose is previously subjected to a heat treatment. That is, an antibacterial power of 1,5-D-anhydrofructose can be further increased, and the antibacterial power is developed at a low concentration of 1,5-D-anhydrofructose, as compared with a case where 1,5-D-anhydrofructose is not subjected to the heat treatment. Consequently, a food containing 1,5-D-anhydrofructose is difficult to putrefy and at the same time, the antibacterial spectrum becomes wider.

Experiment [3] concerns Staphylococcus aureus FDA 209P. The description is as above. In kind it is cell-based.
Excerpt: as §1

In experiment [4] the test system is Streptococcus lactis IAM 1249. The experiment is described as above. In kind it is cell-based.
Excerpt: as §1

For experiment [5], the system named is Escherichia coli NRIC 1023. The description is as above. The experiment is classed as cell-based.
Excerpt: as §1

Experiment [6] deals with Salmonella typhimurium IFO 12529. The experiment is described as above. The experiment is classed as cell-based.
Excerpt: as §1

Experiment [7] concerns Escherichia coli NRIC 1023. As to the kind of experiment: Test Example 2 number of living bacteria in noodle soup preserved at 30° C. (FIG. 4). The procedure: FIG. 4 is a graph showing the number of Escherichia coli NRIC 1023 living in a noodle soup under preservation.
(§2) This will be described in detail later in Test Example 2.
(§3) 40 Grams of a powdery soup stock (produced by Yamaki, Co.) and 200 ml of commercially available soy sauce were added to 1,000 ml of water to prepare a noodle soup. Bacteria were inoculated into the noodle soup, and the noodle soup was preserved at 30° C., and then, the number of living bacteria was counted. FIG. 3 is a curve showing the number of living Bacillus subtillis IAM 1249 (which will be simply referred to as B. subtillis hereinafter), and FIG. 4 is a curve showing the number of living Escherichia coli NRIC 1023 (which will be simply referred to as E. coli hereinafter). In FIGS. 3 and 4, A-1 and A′-1 are curves each indicating the number of living B. subtillis or E. colli inoculated into the unsterilized noodle soup. In the cases of A-1 and A′-1,1,5-D-anhydrofructose was not added, and P and P′ indicate the number of bacteria initially generated.
(§4) A-2 and A′-2 are curves each indicating the number of living B. subtillis or E. colli inoculated into the noodle soup sterilized by heating in hot water at […]. for 10 minutes. In the cases of A-2 and A′-2,1,5-D-anhydrofructose was not added, and the numbers of bacteria initially generated are indicated by Q and Q′, respectively. […]

Experiment [8] deals with Pseudomonas aeruginosa IFO 12680. As to the kind of experiment: number of bacteria killed by heating in soybean-casein digest broth medium pH 5.5 (FIG. 1). In kind it is cell-based. The following applies: 1% 1,5-D-anhydrofructose, heating at 55° C. for ten minutes, pH 5.5 broth. From the text:
FIG. 1 is a curve indicating the number of Pseudomonas aeruginosa IFO 12680 killed by heating.
(§5) FIGS. 1 and 2 show curves each indicating the number of gram-negative bacteria killed in a soybean-casein digest broth medium (pH of 5.5) by heating.

The next experiment concerns many bacteria. The following applies: against many bacteria; 'has been recognized'; cited from earlier work.
Experiment [9] has as its system Bacillus subtillis IAM 1249. As to the kind of experiment: Test Example 2 number of living bacteria in noodle soup preserved at 30° C. (FIG. 3). The procedure:
FIG. 3 is a graph showing the number of Bacillus. subtillis IAM 1249 living in a noodle soup under preservation.
as §2, §3, §4

Experiment [10] has as its system Salmonella typhimurium IFO 12529. As to the kind of experiment: number of bacteria killed by heating in soybean-casein digest broth medium pH 5.5 (FIG. 2). In kind it is cell-based. The following applies: 1% 1,5-D-anhydrofructose, heated at 60° C. for 10 minutes, pH 5.5 broth.
Excerpt: FIG. 2 is a curve indicating the number of which Salmonella typhimurium IFO 12529 killed by heating.
as §5

Where [11] appears, read: noodle soup, heating at 550° C. for 10 minutes after addition of 1,5-D-anhydrofructose vs heating without it.

Where two headings read alike, the source gives them in different places.

Consider `O=C1CO[C@H](CO)[C@@H](O)[C@@H]1O` [AF, 1,5-D-anhydrofructose], for which the “OD^660 (turbidity)” value in experiment [1] (1% of AF added and not heated) is reported as 0.836; in experiment [1] (1% of AF, heated at 55° C. for 10 minutes), 0.513; in experiment [1] (1% of AF, heated at 60° C. for 10 minutes), 0.437; in experiment [1] (1% of AF, heated at 80° C. for 10 minutes), 0.355; in experiment [1] (1% of AF, heated at 90° C. for 10 minutes) it was 0.338. In addition, in [1] (heated at 55° C. for 10 minutes after addition of 1% of AF, (1.160-0.513)/(1.160-0.836)), the “antibacterial power relative to the control with 1% of AF added and not heated” value was “about two times”. In addition, the “number of normal sacks / total number of sacks” value is on record as 5/5 in the experiment on Lactobacillus casei (heated at 55° C. for 10 minutes, 5 preservation days at 30° C.); 3/5 in the experiment on Lactobacillus casei (heated at 55° C. for 10 minutes, 10 preservation days at 30° C.); 1/5 in the experiment on Lactobacillus casei (heated at 55° C. for 10 minutes, 15 preservation days at 30° C.); 0/5 with Lactobacillus casei (heated at 55° C. for 10 minutes, 20 preservation days at 30° C.); 4/5 in the experiment on Lactobacillus casei (not heated, 5 preservation days at 30° C.); 0/5 in the experiment with Lactobacillus casei (not heated, 10 preservation days at 30° C.). Besides, the “number of normal vessels / total number of vessels” value is 5/5 in the experiment on Bacillus subtillis (Heated at 60° C. for 10 minutes, preservation time 12); 5/5 with Bacillus subtillis (Heated at 60° C. for 10 minutes, preservation time 24); 5/5 in the experiment on Bacillus subtillis (Heated at 60° C. for 10 minutes, preservation time 36); 5/5 in the experiment on Bacillus subtillis (Heated at 60° C. for 10 minutes, preservation time 48); 0/5 in the experiment on Bacillus subtillis (Heated at 60° C. for 10 minutes, preservation time 60); 5/5 in the experiment with Bacillus subtillis (Not heated, preservation time 12). Moreover, the “number of normal vessels / total number of vessels” value in the experiment with Bacillus subtillis (Not heated, preservation time 24) is reported as 5/5; in the experiment with Bacillus subtillis (Not heated, preservation time 36) it was 0/5. Also, the “minimum growth-inhibiting concentration (MIC)” value in experiment [2] (listed as non-heated AF) was 3%; in experiment [3] (listed as non-heated AF), 1.5%; in experiment [4] (listed as non-heated AF), 3%; in [5] (listed as non-heated AF) it was 5%; in experiment [6] (listed as non-heated AF), 4%. Also, the “proliferation of bacteria during preservation” value in experiment [7] (noodle soup containing 1,5-D-anhydrofructose, 30° C., B′-2 vs B′-3) is reported as “suppressed”; in experiment [9] (noodle soup containing 1,5-D-anhydrofructose, 30° C., B-2 vs B-3), “suppressed”. Moreover, in experiment [7] (setting [11]), the “number of living bacteria initially generated (from Q′ to R′)” value was “reduced by about one figure”. Also, the “number of bacteria remaining alive relative to the control” value is “one tenth of that in the control” in experiment [8] and “one hundredth or less of that in the control” in experiment [10]. Moreover, in the experiment on many bacteria, the “concentration exhibiting proliferation-inhibiting effect” value is on record as not above 1%. The “number of living bacteria initially generated (from Q to R)” value in experiment [9] (setting [11]) is on record as “reduced by about one figure”.
For the molecule `O=C1CO[C@H](CO)[C@@H](O)[C@@H]1O` [heated AF, 1,5-D-anhydrofructose], the “minimum growth-inhibiting concentration (MIC)” value was 1% in experiment [2]; 0.5% in [3]; 1% in experiment [4]; 2% in experiment [5]; 2% in experiment [6].
